Experimental data from patent publication EP0922458A1, “Potentiation of temozolomide by an ATase inhibitor” (CANCER RESEARCH CAMPAIGN TECHNOLOGY LIMITED, priority 1993, dated 1994).
Where two headings read alike, the source gives them in different places.

Columns and labels:
[1] = Stability in tissue culture medium (HPLC analysis); assay type: physicochemical; details: 37°C
[2] = molecular target: T1, O^6-alkylguanine DNA alkyltransferase (ATase) (Homo sapiens, UniProt P16455); assay: O^6-alkylguanine DNA alkyltransferase assay of treated cells; assay type: cell-based; details: for ATase content after BG: concentrations of BG used; for IC50: three-hour incubation, read-out: concentration causing 50% reduction in ATase content
T1 construct: endogenous in cells; host or cells: human tumour cell lines U373, MCF-7, LOVO, MAWI (extracts of treated cells)
T1 sequence (P16455 1-207): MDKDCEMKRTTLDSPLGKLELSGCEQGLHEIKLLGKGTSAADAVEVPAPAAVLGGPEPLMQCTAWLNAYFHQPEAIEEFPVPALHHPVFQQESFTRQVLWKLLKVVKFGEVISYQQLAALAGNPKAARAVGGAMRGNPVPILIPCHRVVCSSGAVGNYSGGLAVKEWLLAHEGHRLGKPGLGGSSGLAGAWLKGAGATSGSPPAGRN
Procedure: This assay was carried out as described by Lee et al., Cancer Res., 51:619 (1991). Thus, varying amounts of cell extracts are incubated with DNA which contains O^6-methylguanine labelled with [^3H] in the methyl group, at preferably 37°C for 2 hours in a total volume of 300 µl of 1 mg/ml of bovine serum albumin in buffer 1. After incubation, bovine serum albumin (100µl of a 10 mg/ml solution in buffer 1) and perchloric acid (100µl of a 4 M solution) are added in rapid succession. A further 2 ml of 1M perchloric is added and the mixture heated at 75°C for 40 minutes to degrade the DNA to acid soluble material. The protein, which contains the methylated ATase, is then collected by centrifugation, washed with 4ml of 1M perchloric acid before being resuspended in 300 µl of 0.01M sodium hydroxide and dissolved in 3ml of aqueous scintillation fluid (Ecoscint A: National Diagnostics), and counted. The protein content of the cells was determined with a BioRad protein assay kit using bovine serum albumin as a standard. ATase activity is expressed as fmol methyl transferred to protein per mg of total protein in the extract.

control XP cells (pZip) = assay: Cytotoxicity in XP lines (MTT assay); assay type: cell-based; details: for IC50: 120 h, XP line with ATase < 2 fmol/mg protein (control pZip; printed on the line 'phAT'), MTT assay, 5 days, without BG; for sensitivity of control XP cells relative to human ATase cDNA-transfected cells: pZip versus phAT XP cells, Table I
Procedure: (§1) Human ATase cDNA-transfected or control XP cells [Fan et al., Nucleic Acid. Res., 18:5723 (1990)] were grown in MEM and 1000 cells/well were plated. After a 3 hour incubation, temozolomide, freshly diluted into MEM, was added and the plates incubated for 5 days. Survivals were assayed as described by Morten et al., Carcinogenesis, 13:483 (1992). In the BG experiments, 300 cells were plated in triplicate onto 9cm plates and allowed to attach for 5 hours. BG was added (10 µM in MEM) 3 hours prior to the treatment with temozolomide which was freshly diluted into MEM containing 10 µM BG. After 7 days, colonies were strained with Giemsa and counted.

[3] = system: human ATase cDNA-transfected XP cells (phAT); assay: Cytotoxicity in XP lines (MTT assay); assay type: cell-based; details: 120 h, XP line with ATase 1240 fmol/mg protein (phAT; printed on an unlabelled line), 5 days, without BG
Procedure: as §1

SF767 cells = details: WO 91/13898; cited from earlier work
human tumour cell lines = assay: Single dose cytotoxicity, summary over the tumour cell lines; assay type: cell-based
Procedure: (§2) Cell lines were routinely grown as monolayers in DMEM supplemented with 10% foetal calf serum, 25mM HEPES, glutamine and penicillin/streptomycin. Cytotoxicity studies were carried out in HEPES-free medium in a 5% CO2 atmosphere. 750-1000 cells/well were plated in 96 well plates and, after overnight incubation, were treated for 2 hours with or without 33 µM BG. Temozolomide or CCNU was then added for 1 hour in the same medium, the final DMSO concentration not exceeding 1%. […] For the repeat temozolomide dozing schedule, cells were given consecutive 24 hour treatments, with fresh medium each day. Assays were carried out at least in duplicate.

MAWI [4] = assay: Repeated dose temozolomide cytotoxicity; assay type: cell-based; details: Homo sapiens
Procedure: as §2

MCF-7 [5] = assay: Repeated dose temozolomide cytotoxicity; assay type: cell-based; details: Homo sapiens
Procedure: as §2

control XP cells = assay: Colony forming assay with BG pretreatment; assay type: cell-based; details: 10 µM BG 3 hours before, colonies after 7 days
Procedure: as §1

U373 [6] = assay: Repeated dose temozolomide cytotoxicity; assay type: cell-based, human; details: for IC50: Homo sapiens, U373 MG, U373, DAY 4 of repeated daily 24 hour doses
Procedure: as §2

ZR-75-1 [7] = assay: Cellular uptake of [^14C]-labelled temozolomide; assay type: in vitro ADME, human; details: 4°C, 200 µM labelled drug
Procedure: (§3) 8-carbamoyl-3-[^14C]methylimidazo[5,1-d]-1,2,3,5-tetrazin-4-(3H)-one (specific activity 26.3mCi/mmole) was kindly supplied by Dr. John Slack (Aston Molecules Ltd, Birmingham, UK). Cell suspensions (5 x 10^6/ml) were equilibrated at 4°C and treated with 200 µM of the labelled drug. 10^6 cells were pipetted into eppendorf tubes and centrifuged through 250µl of an oil mixture (4:1 "Three-in-One"/Dow Corning silicone oil). The aqueous layer was aspirated and the oil layer gently washed with a further 300 µl of saline. After centrifugation both layers were aspirated, the cell pellet dissolved in a tissue solubilizer such as Protosol® (quaternary ammonium hydroxide in toluene) and added to scintillation vials containing Optiphase® (95-99% diisopropylnaphthalene).

MAWI [8] = assay: Cellular uptake of [^14C]-labelled temozolomide; assay type: in vitro ADME, human; details: 4°C, 200 µM labelled drug
Procedure: as §3

U87MG = assay: Single dose cytotoxicity (sulphorhodamine protein assay); assay type: cell-based, human; details: for IC50: Homo sapiens, U-87 MG, U87MG (astrocytoma), 1 hour drug; for Ratio IC50 [-BG]/IC50 [+BG]: U87MG
Procedure: as §2

LOVO = assay: as above; assay type: cell-based, human; details: for IC50: Homo sapiens, LOVO (colo-rectal), 1 hour drug; for Ratio IC50 [-BG]/IC50 [+BG]: LOVO
Procedure: as §2

LS174T = assay: as above; assay type: cell-based, human; details: for IC50: Homo sapiens, LS174T (colo-rectal), 1 hour drug; for Ratio IC50 [-BG]/IC50 [+BG]: LS174T
Procedure: as §2

ZR-75-1 [9] = assay: as above; assay type: cell-based, human; details: for IC50: Homo sapiens, ZR-75-1 (breast), 1 hour drug; for Ratio IC50 [-BG]/IC50 [+BG]: ZR-75-1
Procedure: as §2

MAWI [10] = assay: as above; assay type: cell-based, human; details: for IC50: Homo sapiens, MAWI (colo-rectal), 1 hour drug; for Ratio IC50 [-BG]/IC50 [+BG]: MAWI
Procedure: as §2

U373 [11] = assay: as above; assay type: cell-based, human; details: for IC50: Homo sapiens, U373 MG, U373 (astrocytoma), 1 hour drug; for Ratio IC50 [-BG]/IC50 [+BG]: U373
Procedure: as §2

MCF-7 [12] = assay: as above; assay type: cell-based, human; details: for IC50: Homo sapiens, MCF7, MCF-7 (breast), 1 hour drug; for Ratio IC50 [-BG]/IC50 [+BG]: MCF-7
Procedure: as §2

Nc1nc(OCc2ccccc2)c2[nH]cnc2n1 [BG, O^6-benzylguanine]
stable in tissue culture medium [1]: at least 24 hours
ATase content after BG ([2]; MAWI cells): undetectable level
ATase content after BG ([2]; human ATase cDNA transfected XP fibroblasts): undetectable level

NC(=O)c1ncn2c(=O)n(CCCl)nnc12 [mitozolomide, 8-carbamoyl-3-(2-chloroethyl)imidazo[5,1-d]-1,2,3,5-tetrazin-4-(3H)-one]
IC50 (control XP cells (pZip)): 0.8 µM
sensitivity of control XP cells relative to human ATase cDNA-transfected cells (control XP cells (pZip)): 4-5 fold
IC50 [3]: 4.2 µM

CC1CCC(NC(=O)N(CCCl)N=O)CC1 (stereo not drawn) [Me CCNU]
decrease in the ED50 when combined with O^6-benzylguanine (SF767 cells): 3.8 fold

Cn1nnc2c(C(N)=O)ncn2c1=O [temozolomide, 8-carbamoyl-3-methylimidazo[5,1-d]-1,2,3,5,-tetrazin-4-(3H)-one]
difference in the single dose cytotoxicity between MCF-7 and the colorectal lines (LOVO and MAWI) (human tumour cell lines; single dose): 3-4 fold
IC50 (MAWI [4]; 24 h, DAY 1, with BG): 196 µM
IC50 (MAWI [4]; 24 h, DAY 1, without BG): 319 µM
IC50 (MAWI [4]; 48 h, DAY 2, with BG): 59 µM
IC50 (MAWI [4]; 48 h, DAY 2, without BG): 350 µM
IC50 (MAWI [4]; 72 h, DAY 3, with BG): 21 µM
IC50 (MAWI [4]; 72 h, DAY 3, without BG): 383 µM
IC50 (MAWI [4]; 96 h, DAY 4, with BG): 7.2 µM
IC50 (MAWI [4]; 96 h, DAY 4, without BG): 383 µM
IC50 (MAWI [4]; 120 h, DAY 5, with BG): 1 µM
IC50 (MAWI [4]; 120 h, DAY 5, without BG): 326 µM
IC50 (MCF-7 [5]; MCF7, 24 h, DAY 1, with BG): 89 µM
IC50 (MCF-7 [5]; MCF7, 24 h, DAY 1, without BG): 319 µM
IC50 (MCF-7 [5]; MCF7, 48 h, DAY 2, with BG): 51 µM
IC50 (MCF-7 [5]; MCF7, 48 h, DAY 2, without BG): 319 µM
IC50 (MCF-7 [5]; MCF7, 72 h, DAY 3, with BG): 11 µM
IC50 (MCF-7 [5]; MCF7, 72 h, DAY 3, without BG): 375 µM
IC50 (control XP cells (pZip)): 23 µM
sensitivity of control XP cells relative to human ATase cDNA-transfected cells (control XP cells (pZip)): 4-5 fold
IC50 [3]: 100 µM
effect of BG pretreatment on cytotoxicity of temozolomide (control XP cells): no measurable effect
IC50 (U373 [6]; with BG): 18 µM
IC50 (U373 [6]; without BG): 51 µM
potentiation of temozolomide toxicity by BG (U373 [6]; U373 cells, four 24 hour doses, BG present): 3 fold
time to complete uptake (ZR-75-1 [7]): ≤ 5 min
time to complete uptake (MAWI [8]): ≤ 5 min
IC50 ([2]; LOVO): 50 to 100 µM
IC50 ([2]; MAWI): 50 to 100 µM
IC50 ([2]; MCF-7): 50 to 100 µM
IC50 ([2]; U373): 50 to 100 µM
IC50 (U87MG; 2 hours 33 µM BG before): 131 µM
IC50 (U87MG; without BG): 172 µM
Ratio IC50 [-BG]/IC50 [+BG] (U87MG): 1.3
IC50 (LOVO; 2 hours 33 µM BG before): 323 µM
IC50 (LOVO; without BG): 848 µM
Ratio IC50 [-BG]/IC50 [+BG] (LOVO): 2.6
IC50 (LS174T; 2 hours 33 µM BG before): 632 µM
IC50 (LS174T; without BG): 873 µM
Ratio IC50 [-BG]/IC50 [+BG] (LS174T): 1.4
IC50 (ZR-75-1 [9]; 2 hours 33 µM BG before): 23 µM
IC50 (ZR-75-1 [9]; without BG): 32 µM
Ratio IC50 [-BG]/IC50 [+BG] (ZR-75-1 [9]): 1.4
IC50 (MAWI [10]; 2 hours 33 µM BG before): 335 µM
IC50 (MAWI [10]; without BG): 1170 µM
Ratio IC50 [-BG]/IC50 [+BG] (MAWI [10]): 3.5
IC50 (U373 [11]; 2 hours 33 µM BG before): 78 µM
IC50 (U373 [11]; without BG): 131 µM
Ratio IC50 [-BG]/IC50 [+BG] (U373 [11]): 1.7
IC50 (MCF-7 [12]; 2 hours 33 µM BG before): 171 µM
IC50 (MCF-7 [12]; without BG): 325 µM
Ratio IC50 [-BG]/IC50 [+BG] (MCF-7 [12]): 1.9

O=NN(CCCl)C(=O)NC1CCCCC1 [CCNU, lomustine]
increase in toxicity (sensitivity) after pretreatment with a single non-toxic dose of BG (human tumour cell lines; single dose, over the tumour cell lines): ≤ 6 fold
toxicity on a molar basis relative to temozolomide (human tumour cell lines; slopes of IC50 versus ATase content, Figure 1): approximately five
IC50 (U87MG; 2 hours 33 µM BG before): 8.8 µM
IC50 (U87MG; without BG): 28 µM
Ratio IC50 [-BG]/IC50 [+BG] (U87MG): 3.2
IC50 (LOVO; 2 hours 33 µM BG before): 32 µM
IC50 (LOVO; without BG): 92 µM
Ratio IC50 [-BG]/IC50 [+BG] (LOVO): 2.9
IC50 (LS174T; 2 hours 33 µM BG before): 13 µM
IC50 (LS174T; without BG): 73 µM
Ratio IC50 [-BG]/IC50 [+BG] (LS174T): 5.7
IC50 (ZR-75-1 [9]; 2 hours 33 µM BG before): 25 µM
IC50 (ZR-75-1 [9]; without BG): 12 µM
Ratio IC50 [-BG]/IC50 [+BG] (ZR-75-1 [9]): 0.5
IC50 (MAWI [10]; 2 hours 33 µM BG before): 30 µM
IC50 (MAWI [10]; without BG): 133 µM
Ratio IC50 [-BG]/IC50 [+BG] (MAWI [10]): 4.4
IC50 (U373 [11]; 2 hours 33 µM BG before): 12 µM
IC50 (U373 [11]; without BG): 15 µM
Ratio IC50 [-BG]/IC50 [+BG] (U373 [11]): 1.2
IC50 (MCF-7 [12]; 2 hours 33 µM BG before): 31 µM
IC50 (MCF-7 [12]; without BG): 70 µM
Ratio IC50 [-BG]/IC50 [+BG] (MCF-7 [12]): 2.2
